Experimental data taken from patent publication US6878742B2, “Heterocyclic sulfonamide inhibitors of beta amyloid production” (Wyeth, priority 2000, dated 2005).
“And” between values parts separate entries of the source, which are not always exact repeats. Equal values may be shown once. Read-outs that look alike come from different tables or passages of the source.

Tested on: amyloid precursor protein (APP) proteolysis
Assay: Repressor Release Assay (RRA)
Type: cell-based
Method: The beta amyloid inhibitory activity of many of the compounds of the present invention has been determined using the Repressor Release Assay (RRA). See, Table 23 below. A compound is considered active in RRA if it leads to at least a 1.5 fold increase in luciferase activity at 20 μM and is non-toxic.
The compounds generated as described in Examples 1 through 220 were tested in the RRA in accordance with published techniques [Shuey, D. J., Sheiffele, P., Jones, D., Cockett, M. I., and Quinet, E. M. (1999), “Repressor release: a useful tool for monitoring amyloid precursor protein (APP) proteolysis in mammalian cells”, Society for Neuroscience Abstracts, Vol. 25, 29th Annual Meeting of Society for Neuroscience, Miami Beach, Fla., Oct. 23-28, 1999]. Briefly, this assay is performed as follows.
CHO-K1 cells are cultured in whole DMEM media (DMEM—High Glucose with 10% fetal bovine serum, 1% Non-essential Amino Acids, and 1% Penicillin-Streptomycin) at 37° C. with 5% CO2. Two million cells are plated into 10-cm dishes 24 hrs prior to transfection.
Transient transfections are completed as recommended by Gibco BRL using their Lipofectamine Plus system. First, 6 μg of pRSVO-luc and 6 μg of APP-lacI construct DNA are added to 460 μL Opti-Mem transfection media and incubated with 30 μL Plus reagent for 15 minutes. Then, a lipid mixture of 40 μL Lipofectamine reagent and 460 μL Opti-Mem transfection media is incubated with the DNA-Plus reagent mixture for 15 minutes. During the DNA-lipid incubation, the CHO-K1 cells are washed once and covered in 5.0 mL DMEM media without Penicillin-Streptomycin. The DNA-lipid preparation is then layered onto these cells and incubated at 37° C. overnight.
One and one half million transfected cells per well (100 μL total volume) are plated into sterile, opaque Packard 96-well Cultur-Plates in clear DMEM whole media (DMEM—without phenol red) and incubated at 37° C. with 5% CO2 for 3-5 hours.
Compounds are diluted using two different protocols; one protocol is used for compounds supplied neat (weighed powder in vial) and the other protocol is used for compounds supplied in solution (20 mM in DMSO in 96-well plates). For both protocols, 25 mM Hepes and 25 mM Hepes/1% DMSO are prepared fresh to be used as diluent. The Hepes/DMSO is used as the diluent control on all experimental plates.
The following table depicts the steps for compound dilution (please note that the last step is the addition of compound to cells/media in tissue culture plate):
Because some compounds arrive in 96-well format at 20 mM, the following represents the protocol for their dilution (note that an average molecular weight of these compounds was used to calculate these dilutions and as above, the last step is the addition of compound to cells/media in tissue culture plate):
Once compounds are diluted, they are applied in duplicate on cells in tissue culture plates (prepared above). Cells are incubated with compound at 37° C. with 5% CO2 for an additional 36-48 hours.
Luciferase assays (LucLite reagent, Packard) are performed and are read on a Packard TopCount instrument. Media is removed from each 96-well plate and replaced with 100 μL PBS per well (with Mg^2+ and Ca^2+). An equal volume (100 μL) of the LucLite lysis/substrate buffer is added to each well and the plates are sealed and mixed in the dark on a rotary shaker for 15-30 minutes at room temperature. Luciferase readings are then taken on the TopCount instrument. Measurements are expressed as relative light units (RLU) and are calculated and analyzed in MS Excel as follows.
A compound is considered active in RRA if it leads to at least a 1.5 fold increase in luciferase activity at 20 μM and is non-toxic, as determined by loss of signal (≦0.75 fold increase). Fold increase is the amount of luciferase activity (measured in relative light units) over diluent control. SEM represents the standard error of the mean for fold increase (not shown).

[1] = Conc 3 μg/mL, luciferase activity over diluent control
[2] = Conc 10 μg/mL, luciferase activity over diluent control
[3] = Conc 20 μg/mL, luciferase activity over diluent control
[4] = Conc 20 μg/mL, luciferase activity over diluent control, read-out: APPI Fold Increase
[5] = Conc 10 μg/mL, luciferase activity over diluent control, read-out: APPI Fold Increase

SMILES: CC(C)CC(CO)NS(=O)(=O)c1ccc(Br)s1 (stereo not drawn) [Example 105]
- APPI Fold Increase (Conc 1 μg/mL, luciferase activity over diluent control): 1.57 fold
- APPI Fold Increase [1]: 2.23 fold
- APPI Fold Increase [2]: 3.93 fold
- APPI Fold Increase [3]: 2.4 fold and 1.5 fold

SMILES: O=[N+]([O-])c1ccc([C@@H](O)[C@@H](CO)NS(=O)(=O)c2ccc(Cl)s2)cc1 [Example 99, 5-chloro-N-[(R,R)-2-hydroxy-1-(hydroxymethyl)-2-(4-nitrophenyl)ethyl]thiophene-2-sulfonamide]
- fold induction at 20 µg/mL [4]: 1.5

SMILES: CCCCCC[C@@H](c1ccco1)[C@@H](CO)NS(=O)(=O)c1ccc(Br)s1 [Example 73, 5-bromo-N-[(1S,2R)-2-(2-furyl)-1-(hydroxymethyl)octyl]thiophene-2-sulfonamide]
- fold induction at 20 µg/mL [4]: 1.9

SMILES: O=S(=O)(N[C@H](CO)C1CCC(OCc2ccccc2)CC1)c1ccc(Cl)s1 (stereo partly drawn) [Example 202, N-{(S)-1-[4-(benzyloxy)cyclohexyl]-2-hydroxyethyl}-5-chlorothiophene-2-sulfonamide]
- fold induction at 20 µg/mL [4]: 2

SMILES: CCCCCC[C@@H](C)[C@@H](CO)NS(=O)(=O)c1ccc(Cl)s1 [Example 29, 5-chloro-N-[(1S,2R)-1-(hydroxymethyl)-2-methyloctyl]thiophene-2-sulfonamide]
- fold induction at 20 µg/mL [4]: 2.6

SMILES: CC(C)[C@@](C)(CO)NS(=O)(=O)c1ccc(Cl)s1 [Example 26, 5-chloro-N-[(1S)-1-(hydroxymethyl)-1,2-dimethylpropyl]thiophene-2-sulfonamide]
- fold induction at 20 µg/mL [4]: 5

SMILES: CC[C@H](C)[C@H](NS(=O)(=O)c1ccc(Cl)s1)C(C)(C)O [Example 162, 5-Chloro-N-[(S,S)-1-(1-hydroxy-1-methylethyl)-2-methylbutyl]thiophene-2-sulfonamide]
- fold induction at 10 µg/mL [5]: 2.6

SMILES: CCCCC(CC)C(CO)NS(=O)(=O)c1ccc(Cl)s1 (stereo not drawn) [Example 21, 5-chloro-N-[2-ethyl-1-(hydroxymethyl)hexyl]thiophene-2-sulfonamide]
- fold induction at 20 µg/mL (read-out: APPI Fold Increase): 3.3

SMILES: CC(C)CC(CO)NS(=O)(=O)c1ccc(Cl)s1 (stereo not drawn) [Example 90]
- APPI Fold Increase [1]: 1.74 fold
- APPI Fold Increase [2]: 3.82 fold
- APPI Fold Increase [3]: 3.6 fold

SMILES: CCCCCC[C@@H](CCC)[C@@H](CO)NS(=O)(=O)c1ccc(Cl)s1 [Example 37, 5-chloro-N-[(1S,2R)-1-(hydroxymethyl)-2-propyloctyl]thiophene-2-sulfonamide]
- fold induction at 20 µg/mL [4]: 4.8

SMILES: C=CC(O)[C@@H](NS(=O)(=O)c1ccc(Cl)s1)[C@@H](C)CC (stereo partly drawn) [Example 127, 5-chloro-N-{(S)-2-hydroxy-1-[(S)-1-methylpropyl]but-3-enyl}thiophene-2-sulfonamide]
- fold induction at 10 µg/mL [5]: 4.27

SMILES: CC[C@@H](c1ccc(-c2ccccc2)cc1)[C@@H](CO)NS(=O)(=O)c1ccc(Cl)s1 [Example 54, N-[(1S,2S)-2-[1,1'-biphenyl]-4-yl-1-(hydroxymethyl)butyl]-5-chlorothiophene-2-sulfonamide]
- fold induction at 20 µg/mL [4]: 3.3

SMILES: CC[C@H](C)[C@@H](CO)NS(=O)(=O)c1ccco1 [Example 206, N-[(1S,2S)-1-(hydroxymethyl)-2-methylbutyl]-2-furansulfonamide]
- fold induction at 20 µg/mL [4]: 1.8

SMILES: CC[C@H](C)[C@H](NS(=O)(=O)c1ccc(Cl)s1)C(O)c1ccc(F)cc1 (stereo partly drawn) [Example 130, 5-chloro-N-{(S,S)-1-[(4-fluorophenyl)(hydroxy)methyl]-2-methylbutyl}thiophene-2-sulfonamide]
- fold induction at 10 µg/mL [5]: 1.85

SMILES: O=S(=O)(N[C@H](CO)Cc1ccc(OCc2ccccc2)cc1)c1ccc(Br)s1 [Example 116, N-{(S)-1-[4-(benzyloxy)benzyl]-2-hydroxyethyl}-5-bromothiophene-2-sulfonamide]
- fold induction at 20 µg/mL [4]: 2.2

SMILES: CC[C@H](c1ccc(OC)cc1)[C@@H](CO)NS(=O)(=O)c1ccc(Cl)s1 [Example 32, 5-chloro-N-[(1S,2R)-1-(hydroxymethyl)-2-(4-methoxyphenyl)butyl]thiophene-2-sulfonamide]
- fold induction at 20 µg/mL [4]: 5

SMILES: CC(C)[C@@](C)(CO)NS(=O)(=O)c1ccc(Br)s1 [Example 25, 5-Bromo-N-[(1S)-1-(hydroxymethyl)-1,2-dimethylpropyl]thiophene-2-sulfonamide]
- fold induction at 20 µg/mL [4]: 7.5

SMILES: C/C=C(\C)C(O)(/C(C)=C/C)[C@@H](NS(=O)(=O)c1ccc(Cl)s1)[C@@H](C)CC (stereo partly drawn) [Example 170, 5-chloro-N-{(S,E)-2-hydroxy-3-methyl-2-[(E)-1-methylprop-1-enyl]-1-[(S)-1-methylpropyl]pent-3-enyl}thiophene-2-sulfonamide]
- fold induction at 10 µg/mL [5]: 1.95

SMILES: CC[C@H](C)[C@@H](C=O)NS(=O)(=O)c1ccc(Cl)s1 [Example 118, 5-Chloro-N-[(S,S)-1-formyl-2-methylbutyl]thiophene-2 sulfonamide]
- fold induction at 20 µg/mL [4]: 4.8

SMILES: CCCCC[C@H](C)[C@@H](CO)NS(=O)(=O)c1ccc(Cl)s1 [Example 39, 5-chloro-N-[(1S,2S)-1-(hydroxymethyl)-2-methylheptyl]thiophene-2-sulfonamide]
- fold induction at 20 µg/mL [4]: 5.7

SMILES: CC[C@@H](c1ccco1)[C@@H](CO)NS(=O)(=O)c1ccc(Cl)s1 [Example 49, 5-chloro-N-[(1S,2R)-2-(2-furyl)-1-(hydroxymethyl)butyl]thiophene-2-sulfonamide]
- fold induction at 20 µg/mL [4]: 6.1

SMILES: C=CC(O)[C@@H](NS(=O)(=O)c1cccs1)[C@@H](C)CC (stereo partly drawn) [Example 146, N-{(S)-2-hydroxy-1-[(S)-1-methylpropyl]but-3-enyl}thiophene-2-sulfonamide]
- fold induction at 10 µg/mL [5]: 1.83

SMILES: O=S(=O)(N[C@H](CO)C1CCC(O)CC1)c1ccc(Cl)s1 (stereo partly drawn) [Example 199A, 5-Chloro-N-[(S)-2-hydroxy-1-(4-hydroxycyclohexyl)ethyl]thiophene-2-sulfonamide]
- fold induction at 20 µg/mL [4]: 2.4

SMILES: O=S(=O)(N[C@H](CO)C1CCCCC1)c1ccc(Cl)s1 [Example 12, 5-Chloro-N-[(1S)-1-cyclohexyl-2-hydroxyethyl]thiophene-2-sulfonamide]
- fold induction at 1 µg/mL (Conc 1 μg/mL, luciferase activity over diluent control, read-out: APPI Fold Increase): 2.58
- fold induction at 3 µg/mL (Conc 3 μg/mL, luciferase activity over diluent control, read-out: APPI Fold Increase): 3.07
- fold induction at 10 µg/mL [5]: 4.2
- fold induction at 20 µg/mL [4]: 4.3

SMILES: CC(C)(C)OC(=O)N1CCC([C@@H](CO)NS(=O)(=O)c2ccc(Cl)s2)CC1 [Example 209, 4-[1-(5-Chloro-thiophene-2-sulfonylamino)-2-hydroxy-ethyl]-piperidine-1-carboxylic acid tert-butyl ester]
- fold induction at 20 µg/mL [4]: 2.1

SMILES: CCCCCC[C@@H](c1ccco1)[C@@H](CO)NS(=O)(=O)c1ccc(Cl)s1 [Example 51, 5-chloro-N-[(1S,2R)-2-(2-furyl)-1-(hydroxymethyl)octyl]thiophene-2-sulfonamide]
- fold induction at 20 µg/mL [4]: 4

SMILES: CC[C@H](C)[C@H](NS(=O)(=O)c1ccc(Cl)s1)C(O)C(F)(F)F (stereo partly drawn) [Example 196, 5-Chloro-N-[(S,S)-2-methyl-1-(2,2,2-trifluoro-1-hydroxyethyl)butyl]thiophene-2-sulfonamide]
- fold induction at 20 µg/mL [4]: 20.7

SMILES: CC[C@H](C)[C@@H](CO)N(CCOc1ccccc1)S(=O)(=O)c1ccc(Cl)s1 [Example 87, 5-Chloro-N-[(1S,2S)-1-(hydroxymethyl)-2-methylbutyl]-N-(2-phenoxyethyl)thiophene-2-sulfonamide]
- fold induction at 20 µg/mL [4]: 3.1
